Data published in patent US6007814A, “Therapeutic uses of the hypervariable region of monoclonal antibody M195 and constructs thereof” (priority 1992, dated 1999).

Assays:
Assay type in all cases: cell-based, human
CFU-GM = experiment: Clonogenic assay of normal bone marrow progenitors, CFU-GM; conditions: normal BM; 4HC 100 μM, VP-16 5 μg/ml; 1 hr at 37° C.; scored at day 14; mean ± SD vs control cultures
Protocol: (§1) Bone Marrow Cells. Bone marrow was aspirated from the posterior iliac crest of healthy volunteers after obtaining written informed consent and BM mononuclear cells were collected after Ficoll-Hypaque gradient (1.077 g/cm3).
(§2) Incubation Procedure and Culture Techniques. Tumor cells and normal BM cells were adjusted to a concentration of 2×10^6 /ml and 20×10^6 /ml, respectively. […] After completion of 1 hr incubation at 37° C., the cells were put on ice for five minutes and washed twice with RPMI supplemented with FCS. To simulate "ex vivo" BM purging conditions, the HL-60 cells were also incubated together with irradiated (3,000 cGy) BM cells (1:10 ratio). […] Cells were incubated at 37° C. in humidified atmosphere of 5% of CO2 in air and scored for colonies (>50 cells) after 7 days of incubation using an inverted microscope.
(§3) After treatment, normal bone marrow cells were assayed for colonies derived from CFU-GM, BFU-E and CFU-GEM as already described (150). […] Quadruplicate cultures were incubated as described above and the colonies were scored after 14 days of incubation. […] Colonies (>20 cells) were scored after 10 days of incubation.
(§4) DATA ANALYSIS. All experiments were performed three or more times and the mean+standard deviation (SD) values of each experiment were calculated. Colony counts after drug treatment were expressed as a percent of the untreated control cells.

BFU-E = experiment: Clonogenic assay of normal bone marrow progenitors, BFU-E; conditions: normal BM; 4HC 100 μM, VP-16 5 μg/ml; 1 hr at 37° C.; scored at day 14; mean ± SD vs control cultures
Protocol: as §1, §2, §3, §4

HL-60 cell line = experiment: HL-60 clonogenic assay (colony-forming inhibition) after ex vivo purging treatment; conditions: 4HC 100 μM, VP-16 5 μg/ml, 1 hr incubation at 37° C., colonies scored after 7 days, mean + SD
Protocol: Human Cell Line. HL-60 is a human acute promyelocytic leukemia cell line growing with a doubling time of 24 hours and a plating efficiency of 7-12% (148). The cell line was maintained in exponential growth in RPMI-1640 supplemented with 10% fetal calf serum (FCS-Hyclone, Logan, U.S.A.) 1% L-Glutamine at 37° C. in a humidified atmosphere of 5% CO2 air. Cell viability was always higher than 95% and cells were free of mycoplasma contamination.
as §2, §4

SMILES: O=P1(N(CCCl)CCCl)NC(OO)CCO1 (stereo not drawn) [4HC]
- COLONY FORMING INHIBITION CFU-GM (CFU-GM): 84 ± 10%
- COLONY FORMING INHIBITION BFU-E (BFU-E): 80.3 ± 12.5%
- colony-forming inhibition (HL-60 cell line): 99.5+0.8%
